molecular target: T1, Human MGAT-2 (Homo sapiens, UniProt Q3SYC2); experiment: MGAT LCMS Assay; format: biochemical; settings: human MGAT2 membranes expressed in Sf9 cells; 100 μM 2-oleoylglycerol, 15 μM oleoyl-coenzyme A; read-out: h-MGAT LCMS IC50
T1 construct: made in house; host or cells: Sf9 cells (membrane preparation)
Experimental: Assay plates were run through a fully automated robotics system and shaken for 5 seconds every minute for a total 10 minutes. The reactions were then quenched with 120 μL of ice cold methanol containing 1 μg/mL 1,2-distearoyl-rac-glycerol as the internal standard. Plates were shaken for 2 minutes and spun down to remove protein precipitation. After the spin, samples were transferred to LC/MS compatible PCR plates. For LC/MS analysis, a ThermoFisher Surveyor pump, utilizing a Waters […]® C8, 50×2.1 mm column, was used for the chromatography of enzyme products. The buffer system consists of 0.1% formic acid in water with a mobile phase consisting 0.1% formic acid in methanol. […] The first 0.5 minutes of each injection was diverted to waste to eliminate the presence of Phosphate buffer in the enzymatic reaction. The column was run at 0.6 mL/min and a temperature of 65° C. Mass spectrometry analysis of the samples was performed on a ThermoFisher Quantum Triple quad utilizing APCI (+) as the mode of ionization. […] The ratio of Diolein to internal standard (Peak Area Ratio) is utilized to calculate IC50 values.

T1 sequence (Q3SYC2 whole entry): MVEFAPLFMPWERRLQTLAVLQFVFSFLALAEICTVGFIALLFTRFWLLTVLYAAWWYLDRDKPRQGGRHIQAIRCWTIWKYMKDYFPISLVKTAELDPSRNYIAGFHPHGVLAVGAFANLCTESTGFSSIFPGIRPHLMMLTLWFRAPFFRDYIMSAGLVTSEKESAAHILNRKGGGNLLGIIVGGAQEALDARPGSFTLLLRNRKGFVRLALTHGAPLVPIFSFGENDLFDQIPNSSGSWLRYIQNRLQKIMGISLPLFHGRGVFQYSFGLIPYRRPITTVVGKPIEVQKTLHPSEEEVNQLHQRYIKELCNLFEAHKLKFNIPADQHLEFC

SMILES | IC50 [nM]
Cc1ccc(-c2cc(C3CCCCC3)[nH]c(=O)c2C(=O)Nc2cccnc2)cc1 [Example 37, 6-Cyclohexyl-2-oxo-N-(pyridin-3-yl)-4-(p-tolyl)-1,2-dihydropyridine-3-carboxamide] | 543
CCOc1ccc(NC(=O)c2c(-c3ccc(C)cc3)c(F)c(C3CCCCC3)[nH]c2=O)cc1 [Example 38, 6-Cyclohexyl-N-(4-ethoxyphenyl)-5-fluoro-2-oxo-4-(p-tolyl)-1,2-dihydropyridine-3-carboxamide] | 1250
CCOc1ccc(NC(=O)c2c(-c3ccc(N(C)C)cc3)cc(C3(F)CCCCC3)[nH]c2=O)cc1 [Example 39, 4-(4-(Dimethylamino)phenyl)-N-(4-ethoxyphenyl)-6-(1-fluorocyclohexyl)-2-oxo-1,2-dihydropyridine-3-carboxamide] | 139
CCCCCc1ccc(-c2c(C3CCCC3)[nH]c(=O)c(C(=O)Nc3ccc(OCC)cc3)c2-c2ccc(C)cc2)cc1 [Example 40, 6-Cyclopentyl-N-(4-ethoxyphenyl)-2-oxo-5-(4-pentylphenyl)-4-(p-tolyl)-1,2-dihydropyridine-3-carboxamide] | 390
CCOc1ccc(NC(=O)c2c(-c3ccc(C)cc3)cc(C3(F)CCCCC3)[nH]c2=O)cc1 [Example 41, N-(4-Ethoxyphenyl)-6-(1-fluorocyclohexyl)-2-oxo-4-(p-tolyl)-1,2-dihydropyridine-3-carboxamide] | 36
CCCCCc1ccc(-c2cc(-c3ccc(CC)o3)c(C(=O)Nc3ccc(OCC)cc3)c(=O)[nH]2)cc1 [Example 42, N-(4-Ethoxyphenyl)-4-(5-ethylfuran-2-yl)-2-oxo-6-(4-pentylphenyl)-1,2-dihydropyridine-3-carboxamide] | 395
CC(C)(C)c1ccc(-c2cc(-c3ccc(OCCCC(F)(F)F)cc3)[nH]c(=O)c2C(=O)Nc2ccccc2)cc1 [Example 44, 4-(4-(tert-Butyl)phenyl)-2-oxo-N-phenyl-6-(4-(4,4,4-trifluorobutoxy)phenyl)-1,2-dihydropyridine-3-carboxamide] | 6
CCOc1ccc(NC(=O)c2c(-c3ccc(C(C)(C)C)cc3)cc(-c3ccc(OCCCC(F)(F)F)cc3)[nH]c2=O)cc1 [Example 45, 4-(4-(tert-Butyl)phenyl)-N-(4-ethoxyphenyl)-2-oxo-6-(4-(4,4,4-trifluorobutoxy)phenyl)-1,2-dihydropyridine-3-carboxamide] | 9
O=c1[nH]c(-c2ccc(OCCCCC(F)(F)F)cc2)cc(-c2ccc(C3CC3)s2)c1-c1nnn[nH]1 [Example 46] | 27
O=c1[nH]c(-c2ccc(OCCCC(F)(F)F)cc2)cc(-c2cc3ccccc3s2)c1-c1nnn[nH]1 [Example 47, 4-(Benzo[b]thiophen-2-yl)-3-(1H-tetrazol-5-yl)-6-(4-(4,4,4-trifluorobutoxy)phenyl)pyridin-2(1H)-one] | 29
CC(C)(C)c1ccc(-c2cc(-c3ccc(OCCCC(F)(F)F)cc3)[nH]c(=O)c2-c2nnn[nH]2)cc1 [Example 48, 4-(4-(tert-Butyl)phenyl)-3-(1H-tetrazol-5-yl)-6-(4-(4,4,4-trifluorobutoxy)phenyl)pyridin-2(1H)-one] | 40
Cc1ccc(-c2cc(-c3ccc(OCCCC(F)(F)F)cc3)[nH]c(=O)c2-c2nnn[nH]2)cc1C [Example 50, 4-(3,4-Dimethylphenyl)-3-(1H-tetrazol-5-yl)-6-(4-(4,4,4-trifluorobutoxy)phenyl)pyridin-2(1H)-one] | 109
COc1ccc(NC(=O)c2c(-c3ccc(C(C)(C)C)cc3)cc(-c3ccc(OCCCC(F)(F)F)cc3)[nH]c2=O)cc1 [Example 51, 4-(4-(tert-Butyl)phenyl)-N-(4-methoxyphenyl)-2-oxo-6-(4-(4,4,4-trifluorobutoxy)phenyl)-1,2-dihydropyridine-3-carboxamide] | 417
C/C=C/c1c(-c2ccc(CCCCC)cc2)[nH]c(=O)c(C(=O)Nc2ccc(OCC)cc2)c1-c1ccc(C)cc1 [Example 52] | 3
CCOc1ccc(NC(=O)c2c(-c3ccc(C)cc3)cc(-c3cnn(CCCCCC(F)(F)F)c3)[nH]c2=O)cc1 [Example 53, N-(4-Ethoxyphenyl)-2-oxo-4-(p-tolyl)-6-(1-(6,6,6-trifluorohexyl)-1H-pyrazol-4-yl)-1,2-dihydropyridine-3-carboxamide] | 267
CCOc1ccc(NC(=O)c2c(-c3ccc(C)cc3)cc(C3(F)CCCC3)[nH]c2=O)cc1 [Example 54, N-(4-Ethoxyphenyl)-6-(1-fluorocyclopentyl)-2-oxo-4-(p-tolyl)-1,2-dihydropyridinc-3-carboxamide] | 127
Cc1ccc(-c2cc(-c3ccc(OCCCCCC(F)(F)F)cc3)[nH]c(=O)c2C(=O)NS(=O)(=O)N(C)C)cc1 [Example 56, N-(N,N-Dimethylsulfamoyl)-2-oxo-4-(p-tolyl)-6-(4-((6,6,6-trifluorohexyl)oxy)phenyl)-1,2-dihydropyridine-3-carboxamide] | 29

SMILES | IC50 [nM]
CC(C)n1ccc(-c2cc(-c3ccc(OCCCCCC(F)(F)F)cc3)[nH]c(=O)c2-c2nnn[nH]2)c1 [Example 57, 4-(1-Isopropyl-1H-pyrrol-3-yl)-3-(1H-tetrazol-5-yl)-6-(4-((6,6,6-trifluorohexyl)oxy)phenyl)pyridin-2(1H)-one] | 30
Cc1ccc(-c2cc(-c3ccc(OCCCC(F)(F)F)c(C)c3)[nH]c(=O)c2-c2nnn[nH]2)cc1 [Example 58, 6-(3-Methyl-4-(4,4,4-trifluorobutoxy)phenyl)-3-(1H-tetrazol-5-yl)-4-(p-tolyl)pyridin-2(1H)-one] | 575
CN(C)c1ccc(-c2cc(-c3ccc(OCCCCCC(F)(F)F)cc3)[nH]c(=O)c2-c2nnn[nH]2)cc1 [Example 59, 4-(4-(Dimethylamino)phenyl)-3-(1H-tetrazol-5-yl)-6-(4-((6,6,6-trifluorohexyl)oxy)phenyl)pyridin-2(1H)-one] | 6
Cc1ccc(-c2cc(-c3ccc(CCC4CC4)cc3)[nH]c(=O)c2-c2nnn[nH]2)cc1 [Example 61, 6-(4-(2-Cyclopropylethyl)phenyl)-3-(1H-tetrazol-5-yl)-4-(p-tolyl)pyridin-2(1H)-one] | 139
Cc1ccc(-c2cc(-c3ncc(CCCCCCC(F)(F)F)s3)[nH]c(=O)c2-c2nnn[nH]2)cc1 [Example 62, 3-(1H-Tetrazol-5-yl)-4-(p-tolyl)-6-(5-(7,7,7-trifluoroheptyl)thiazol-2-yl)pyridin-2(1H)-one] | 188
O=C(NS(=O)(=O)C1CC1)c1c(-c2ccc(CC3CC3)cc2)cc(-c2ccc(OCCCCCC(F)(F)F)cc2)[nH]c1=O [Example 63, 4-(4-(Cyclopropylmethyl)phenyl)-N-(cyclopropylsulfonyl)-2-oxo-6-(4-((6,6,6-trifluorohexyl)oxy)phenyl)-1,2-dihydropyridine-3-carboxamide] | 17
COc1ccc(-c2cc(-c3ccc(OCCCCCC(F)(F)F)cc3)[nH]c(=O)c2C(=O)NS(=O)(=O)C2CC2)cc1 [Example 65] | 172
CC(C)n1ccc(-c2cc(-c3ccc(OCCCCCC(F)(F)F)cc3)[nH]c(=O)c2-c2nn[nH]n2)n1 [Example 66] | 61
CCOc1ccc(NC(=O)c2c(-c3cnc(N(C)C)s3)cc(-c3ccc(OCCCC(F)(F)F)cc3)[nH]c2=O)cc1 [Example 67] | 2
CN(C)c1ncc(-c2cc(-c3ccc(OCCCC(F)(F)F)cc3)[nH]c(=O)c2-c2nnn[nH]2)s1 [Example 68, 4-(2-(Dimethylamino)thiazol-5-yl)-3-(1H-tetrazol-5-yl)-6-(4-(4,4,4-trifluorobutoxy)phenyl)pyridin-2(1H)-one] | 673
Cc1ccc(-c2cc(-c3ccc(C4=CCCCCC4)cc3)[nH]c(=O)c2-c2nnn[nH]2)cc1 [Example 69, 6-(4-(Cyclohept-1-en-1-yl)phenyl)-3-(1H-tetrazol-5-yl)-4-(p-tolyl)pyridin-2(1H)-one] | 220
Cc1ccc(-c2cc(-c3ccc(OCCCCCC(F)(F)F)c(C)c3)[nH]c(=O)c2-c2nnn[nH]2)cc1 [Example 70, 6-(3-Methyl-4-((6,6,6-trifluorohexyl)oxy)phenyl)-3-(1H-tetrazol-5-yl)-4-(p-tolyl)pyridin-2(1H)-one] | 97
CS(=O)(=O)NC(=O)c1c(-c2ccc(OC(F)F)cc2)cc(-c2ccc(OCCCCCC(F)(F)F)cc2)[nH]c1=O [Example 71] | 15
CC(C)n1ccc(-c2cc(-c3ccc(CCCCC(F)(F)F)cc3)[nH]c(=O)c2-c2nn[nH]n2)n1 [Example 74, 4-(1-Isopropyl-1H-pyrazol-3-yl)-3-(2H-tetrazol-5-yl)-6-(4-(5.5,5-trifluoropentyl)phenyl)pyridin-2(1H)-one] | 255
O=c1[nH]c(-c2ccc(OCCCC(F)(F)F)cc2)cc(-c2ccn(C3CC3)n2)c1-c1nn[nH]n1 [Example 76, 4-(1-Cyclopropyl-1H-pyrazol-3-yl)-3-(2H-tetrazol-5-yl)-6-(4-(4,4,4-trifluorobutoxy)phenyl)pyridin-2(1H)-one] | 87
O=C(NS(=O)(=O)C1CC1)c1c(-c2ccn(C3CCC3)n2)cc(-c2ccc(OCCCC(F)(F)F)cc2F)[nH]c1=O [Example 77, 4-(1-Cyclobutyl-1H-pyrazol-3-yl)-N-(cyclopropylsulfonyl)-6-(2-fluoro-4-(4,4,4-trifluorobutoxy)phenyl)-2-oxo-1,2-dihydropyridine-3-carboxamide] | 143
Cc1ccc(-c2cc(-c3ccc(OCCCC(F)(F)F)cc3)[nH]c(=O)c2C(=O)NC2CCC2)cc1 [Example 79, N-Cyclobutyl-2-oxo-4-(p-tolyl)-6-(4-(4,4,4-trifluorobutoxy)phenyl)-1,2-dihydropyridine-3-carboxamide] | 198

— US9974778B2, “Substituted pyridinones as MGAT2 inhibitors” (BRISTOL-MYERS SQUIBB COMPANY, priority 2014, dated 2018)
